Data: patent US4137236A, “Amino-spiro[oxa(or thia)cycloalkane-penam]-carboxylic” (U C B, Societe Anonyme, priority 1977, dated 1979)

How the values were obtained:
Assay type in all cases: cell-based
[1] = tested on: Staphylococcus aureus 6538; experiment: MIC in gelose culture medium (relative to reference penicillin); conditions: S.AUREUS 6538; reference 6-amino-penicillanic acid = 1
Procedure: This is a Gram-positive coccus which is particularly sensitive to penicillins and which has a low resistance mechanism. This strain of Staphylococcus is, therefore, representative of a maximum sensitivity of the species.
(§1) For a certain number of compounds of formula (XV), the minimum inhibitory concentration (MIC) was determined as follows:
(§2) The products to be tested are introduced in increasing concentrations into a gelose culture medium in Petri dishes. A multiple inoculator is used to deposit simultaneously drops (10 microliters) of inoculum (suspension of approximately 10^5 bacteria per ml) onto the surface of the medium. After incubation at 37° C for 24 hours, the growth of the bacteria is observed. By definition, the MIC is expressed by the minimum concentration of tested compound which inhibits the multiplication of the bacteia. In the following results, however, the MIC is given as being equal to 1 for the reference compounds and the activity figures given for the tested compounds of formula (XV) are, therefore, relative values. This presentation of the results is more correct and the most reproducible because, for one and the same bacterial strain, different MIC values can be observed if they are measured at different times. This is bound up with the "seasonal" variations in the strains and their nutrient medium.

Escherichia coli B = experiment: as above; conditions: E.COLI B; reference 6-amino-penicillanic acid = 1
Procedure: This is a well-known collection strain of Escherichia coli which produces very little beta-lactamase (of type I) and is, therefore, very sensitive to penicillins. As regards the classification of the beta-lactamases, use is here made of that proposed by M. H. RICHMOND and R. B. SYKES (see Advances in Microbial Physiology,9,(1973),pp.43 and 45).
as §1, §2

[2] = tested on: Escherichia coli B-Ampi R; experiment: as above; conditions: E.COLI B AMPI-R; reference 6-amino-penicillanic acid = 1
Procedure: This is a mutant of the preceding strain which we have produced.
as §1, §2

[3] = tested on: Gram-positive and Gram-negative bacteria; experiment: Comparative antibacterial activity spectra; conditions: towards both Gram-positive and Gram-negative bacteria
Procedure: as §2

[4] = tested on: Staphylococcus aureus 52149; experiment: MIC in gelose culture medium (relative to reference penicillin); conditions: S.AUREUS 52149; reference 6-amino-penicillanic acid = 1
Procedure: This is a Gram-positive coccus, the intrinsic sensitivity of the receptor of which is equivalent to that of the preceding strain but which produces a beta-lactamase which is typical of the species and which renders it resistant to all the penicillins which are sensitive to hydrolysis.
as §1, §2

SMILES: N[C@@H]1C(=O)N2[C@@H]1SC1(CCOCC1)[C@@H]2C(=O)O (relative stereo) [Compound D, 6-amino-2',3',5',6'-tetrahydro-spiro[penam-2,4'-[4H]-pyran]-3-carboxylic acid]
- MIC relative to reference compound (=1) [1]: 0.5
- MIC relative to reference compound (=1) (Escherichia coli B): 0.3
- MIC relative to reference compound (=1) [2]: 0.3
- Activity as compared with 6-amino-penicillanic acid (in words) [3]: better activity
- MIC relative to reference compound (=1) [4]: 0.5
